# Values of other authors in patent publication US6509030B2, “Cultured fish carotenoid and polyphenol added feed for improving fish body color tone and fish meat brilliance” (Toshiyuki Sakiura, priority 2000, dated 2003).
smiles,measurement,setting,value
"CC1=C(/C=C/C(C)=C/C=C/C(C)=C/C=C/C=C(C)/C=C/C=C(C)/C=C/C2=C(C)C(=O)[C@@H](O)CC2(C)C)C(C)(C)C[C@H](O)C1=O [Asthaxanthine, asthaxanthine]","chemical stability, acidic",acidic,very unstable
same,"chemical stability, basic",basic,Unstable
same,"chemical stability, neutral",neutral,Unstable
